Measured values reported in PMC6270063, “Novel Antimicrobial Peptide Dendrimers with Amphiphilic Surface and Their Interactions with Phospholipids — Insights from Mass Spectrometry” (Molecules, 2013).
In brackets after ≈: the same amount, converted by molar mass. Read-outs that look alike come from different tables or passages of the source.

Key:
P. aeruginosa ATCC 27853 = system: P. aeruginosa ATCC 27853
Experimental: (§1) The bacteria Staphylococcus aureus ATCC 25923, Staphylococcus aureus ATCC 43300,Escherichia coli ATCC 25922 and Pseudomonas aeruginosa ATCC 27853 were cultivated on tryptone-soy agar (TSA; Oxoid) for 24 h at 37 °C. Broth microdilution susceptibility tests were performed as described in the Committee Laboratory Standards (CLSI) reference method M07-A8 [41]. Bacteria inocula (5 µL) containing 10^6 CFU/mL were used. The final concentration of dendrimers ranged from 256 to 2 µg/mL, polymyxin B and penicillin G from 8 to 0,15 µg/mL (or 5.8 to 0.1 µM and 21.5 to 0.4 µM, respectively for polymyxin B and penicillin G) were the reference compounds. The plates were incubated at 35 °C and were read after 18 or 24 h depending on the bacterial strain. Minimal Inhibitory Concentrations (MICs) were defined as the lowest drug concentration that reduced the growth by 100%.

S. aureus ATCC 43300 = system: S. aureus ATCC 43300
Experimental: as §1

E. coli ATCC 25922 [1] = system: E. coli ATCC 25922
Experimental: as §1

human red blood cells = test: Hemolysis assay; type: cell-based; details: 1% hematocrit in PBS pH 7.4, 30 min at 23 °C, from Figure 4
Experimental: Dendrimer-induced hemolysis was measured as previously reported. Briefly, human red blood cells obtained from healthy volunteers, were suspended in phosphate buffered saline (PBS, pH 7.4). Prepared suspension of 1% hematocrit was incubated with serial concentration of dendrimers for 30 min at 23 °C. After centrifugation (4,000 rpm, 5 min) the absorbance of supernatant was measured at 540 nm (Spectrostar Omega, BMG Labtech, Ortenberg, Germany). A value of 100% hemolysis was determined by incubation of erythrocytes with double-distilled water (30 min at 23 °C). In a control experiment, cells were incubated in buffer without peptide and absorbance at 540 nm value was used as a blank:
A: Absorbance of the samples incubated with dendrimers;
Ab: Absorbance of the blank samples;
A100%: Absorbance of the reference;
Ac: Absorbance of red blood cells in PBS, hematocrit 1%.

S. aureus ATCC 25923 = test: microbe, parasite or virus in culture
Experimental: as §1

E. coli ATCC 25922 [2] = type: cell-based, Escherichia coli; details: for Activity (MIC) at 200 µM Na+ or K+ concentration / Change of bioactivity on increase of Ca2+ and Mg2+ concentration / Sensitivity of MIC to increase of Na+ or K+ concentration: E. coli ATCC 25922; for Activity (MIC) at 200 µM Na+ or K+ concentration / Sensitivity of MIC to increase of Na+ or K+ concentration: triplicate; for Change of bioactivity on increase of Ca2+ and Mg2+ concentration: Ca2+ and Mg2+ up to 5 mM; for Sensitivity of MIC to increase of Na+ or K+ concentration: Na+ or K+ up to 100 µM, CAMHB with added NaCl or KCl
Experimental: as §1
The effect of salt concentration on the antimicrobial activity of two dendrimers was tested by determining the MICs under a variety of cations concentrations. CAMHB used in the assay was altered by the addition of salt. NaCl or KCl were added to the media to a final concentrations of 10, 50, 100, 200, 500 mM, wheareas CaCl2 or MgCl2 were added to the media to a final concentrations of 0.5, 1.5, 2.5, 5.5, 10.5, and 20.5 mM. Additionally, similar test was performed using MHB (without Ca^2+, Mg^2+) for divalent cations Ca^2+ and Mg^2+. Experiment was performed in triplicate.

[3] = broth microdilution CLSI M07-A8, CAMHB with 0.5 mM Ca2+ and Mg2+, 35 °C, 18 or 24 h
[4] = methicillin-resistant strain, broth microdilution CLSI M07-A8, CAMHB with 0.5 mM Ca2+ and Mg2+, 35 °C, 18 or 24 h
[5] = broth microdilution CLSI M07-A8, CAMHB with 0.5 mM Ca2+ and Mg2+, no K+ and Na+, 35 °C, read after 18 or 24 h, MIC = lowest concentration reducing growth by 100%

Structure (SMILES)	Minimal inhibitory concentration (MIC), P. aeruginosa ATCC 27853 (P. aeruginosa ATCC 27853; [3])	Minimal inhibitory concentration (MIC), S. aureus ATCC 43300 (S. aureus ATCC 43300; [4])	Minimal inhibitory concentration (MIC), E. coli ATCC 25922 (E. coli ATCC 25922 [1]; [3])	Minimal inhibitory concentration (MIC), S. aureus ATCC 25923 (S. aureus ATCC 25923; [5])	Minimal inhibitory concentration (MIC), P. aeruginosa ATCC 27853 (P. aeruginosa ATCC 27853; ATCC 27853, 24 h)	Minimal inhibitory concentration (MIC), S. aureus ATCC 43300 (S. aureus ATCC 43300; ATCC 43300, 24 h)	Minimal inhibitory concentration (MIC), E. coli ATCC 25922 (E. coli ATCC 25922 [1]; ATCC 25922, 24 h)	Minimal inhibitory concentration (MIC), S. aureus ATCC 25923 (S. aureus ATCC 25923; ATCC 25923, 24 h)	further results
NCCCC[C@H](NC(=O)OCc1ccccc1Cl)C(=O)NCCNC(=O)CCN(CCC[C@@H](C(=O)Nc1cccnc1)N(CCC(=O)NCCNC(=O)[C@H](CCCCN)NC(=O)OCc1ccccc1Cl)CCC(=O)NCCNC(=O)[C@H](CCCCN)NC(=O)OCc1ccccc1Cl)CCC(=O)NCCNC(=O)[C@H](CCCCN)NC(=O)OCc1ccccc1Cl [Dendrimer 3a]	>252 µM	>252 µM	>252 µM	2.85 µM (≈ 5.28 µg/mL)	–	–	–	–	Hemotoxicity (level) (human red blood cells): much lower toxicity and low
NCCCC[C@H](NC(=O)OCc1ccccc1Cl)C(=O)NCCNC(=O)CCN(CCC[C@@H](C(=O)NCCc1c[nH]c2ccccc12)N(CCC(=O)NCCNC(=O)[C@H](CCCCN)NC(=O)OCc1ccccc1Cl)CCC(=O)NCCNC(=O)[C@H](CCCCN)NC(=O)OCc1ccccc1Cl)CCC(=O)NCCNC(=O)[C@H](CCCCN)NC(=O)OCc1ccccc1Cl [Dendrimer 3b]	51 µM (≈ 97.8 µg/mL)	12.1 µM (≈ 23.2 µg/mL)	12.1 µM (≈ 23.2 µg/mL)	1.87 µM (≈ 3.59 µg/mL)	–	–	–	–	MIC in presence of Ca2+ (E. coli ATCC 25922 [2]; ATCC 25922, 24 h): 119.8 µM; Activity (MIC) at 200 µM Na+ or K+ concentration (E. coli ATCC 25922 [2]): retained much activity; Change of bioactivity on increase of Ca2+ and Mg2+ concentration (E. coli ATCC 25922 [2]): slow decrease; Sensitivity of MIC to increase of Na+ or K+ concentration (E. coli ATCC 25922 [2]): not sensitive
NCCCC[C@H](NC(=O)OCc1ccccc1Cl)C(=O)NCCNC(=O)CCN(CCC[C@@H](C(=O)NCCc1cnc[nH]1)N(CCC(=O)NCCNC(=O)[C@H](CCCCN)NC(=O)OCc1ccccc1Cl)CCC(=O)NCCNC(=O)[C@H](CCCCN)NC(=O)OCc1ccccc1Cl)CCC(=O)NCCNC(=O)[C@H](CCCCN)NC(=O)OCc1ccccc1Cl [Dendrimer 3c]	–	–	–	–	141 µM (≈ 264 µg/mL)	141 µM (≈ 264 µg/mL)	141 µM (≈ 264 µg/mL)	24.7 µM (≈ 46.2 µg/mL)	–
CCCCCCCCCCCCNC(=O)[C@H](CCCN(CCC(=O)NCCNC(=O)[C@H](CCCCN)NC(=O)OCc1ccccc1Cl)CCC(=O)NCCNC(=O)[C@H](CCCCN)NC(=O)OCc1ccccc1Cl)N(CCC(=O)NCCNC(=O)[C@H](CCCCN)NC(=O)OCc1ccccc1Cl)CCC(=O)NCCNC(=O)[C@H](CCCCN)NC(=O)OCc1ccccc1Cl [Dendrimer 3d]	–	–	–	–	–	–	1.85 µM (≈ 3.59 µg/mL)	1.85 µM (≈ 3.59 µg/mL)	–
N[C@@H](CCCCNC(=O)OCc1ccccc1Cl)C(=O)NCCNC(=O)CCN(CCC[C@@H](C(=O)Nc1cccnc1)N(CCC(=O)NCCNC(=O)[C@@H](N)CCCCNC(=O)OCc1ccccc1Cl)CCC(=O)NCCNC(=O)[C@@H](N)CCCCNC(=O)OCc1ccccc1Cl)CCC(=O)NCCNC(=O)[C@@H](N)CCCCNC(=O)OCc1ccccc1Cl [Dendrimer 3e]	142 µM (≈ 263 µg/mL)	142 µM (≈ 263 µg/mL)	142 µM (≈ 263 µg/mL)	16.6 µM (≈ 30.7 µg/mL)	–	–	–	–	Hemotoxicity (level) (human red blood cells): highest hemotoxicity and high
N[C@@H](CCCCNC(=O)OCc1ccccc1Cl)C(=O)NCCNC(=O)CCN(CCC[C@@H](C(=O)NCCc1c[nH]c2ccccc12)N(CCC(=O)NCCNC(=O)[C@@H](N)CCCCNC(=O)OCc1ccccc1Cl)CCC(=O)NCCNC(=O)[C@@H](N)CCCCNC(=O)OCc1ccccc1Cl)CCC(=O)NCCNC(=O)[C@@H](N)CCCCNC(=O)OCc1ccccc1Cl [Dendrimer 3f]	60 µM (≈ 115 µg/mL)	20.4 µM (≈ 39.1 µg/mL)	7.9 µM (≈ 15.2 µg/mL)	0.93 µM (≈ 1.78 µg/mL)	–	–	–	–	MIC in presence of Mg2+ (E. coli ATCC 25922 [2]; ATCC 25922, 24 h): 119.8 µM; Activity (MIC) at 200 µM Na+ or K+ concentration (E. coli ATCC 25922 [2]): retained much activity; Change of bioactivity on increase of Ca2+ and Mg2+ concentration (E. coli ATCC 25922 [2]): slow decrease; Sensitivity of MIC to increase of Na+ or K+ concentration (E. coli ATCC 25922 [2]): not sensitive
N[C@@H](CCCCNC(=O)OCc1ccccc1Cl)C(=O)NCCNC(=O)CCN(CCC[C@@H](C(=O)NCCc1cnc[nH]1)N(CCC(=O)NCCNC(=O)[C@@H](N)CCCCNC(=O)OCc1ccccc1Cl)CCC(=O)NCCNC(=O)[C@@H](N)CCCCNC(=O)OCc1ccccc1Cl)CCC(=O)NCCNC(=O)[C@@H](N)CCCCNC(=O)OCc1ccccc1Cl [Dendrimer 3g]	–	–	–	–	211 µM (≈ 394 µg/mL)	16.4 µM (≈ 30.7 µg/mL)	211 µM (≈ 394 µg/mL)	51 µM (≈ 95.3 µg/mL)	–
CCCCCCCCCCCCNC(=O)[C@H](CCCN(CCC(=O)NCCNC(=O)[C@@H](N)CCCCNC(=O)OCc1ccccc1Cl)CCC(=O)NCCNC(=O)[C@@H](N)CCCCNC(=O)OCc1ccccc1Cl)N(CCC(=O)NCCNC(=O)[C@@H](N)CCCCNC(=O)OCc1ccccc1Cl)CCC(=O)NCCNC(=O)[C@@H](N)CCCCNC(=O)OCc1ccccc1Cl [Dendrimer 3h]	–	–	–	–	32 µM (≈ 62.2 µg/mL)	1.85 µM (≈ 3.59 µg/mL)	7.9 µM (≈ 15.4 µg/mL)	3.7 µM (≈ 7.19 µg/mL)	–
CC1(C)S[C@@H]2[C@H](NC(=O)Cc3ccccc3)C(=O)N2[C@H]1C(=O)O [Penicillin G, reference compound]	–	–	–	–	–	–	–	–	MIC (S. aureus ATCC 25923; Staphylococcus aureus, ATCC25923, read-out: Minimal inhibitory concentration (MIC), S. aureus ATCC 25923): 6.6 µM (≈ 2.21 µg/mL)
